# Columns and labels:
# Format in all cases: biochemical
# human Yes1 enzyme = target: T1, human Yes1 enzyme (Homo sapiens, UniProt P07947); assay: Yes1 enzyme inhibitory activity (time-resolved fluorometry, biotinylated peptide phosphorylation); details: biotinylated peptide phosphorylation, read-out: YES_IC50
# T1 construct: made in house
# How it was run: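 Inhibition was expressed against a compound-free control to give IC50, using TR-FRET read-out (Eu-cryptate anti-pTyr antibody, streptavidin-XL665).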
# human Src enzyme = target: T2, human Src enzyme (Homo sapiens, UniProt P12931); assay: Src enzyme inhibitory activity (time-resolved fluorometry, biotinylated peptide phosphorylation); details: biotinylated peptide phosphorylation, read-out: SRC_IC50
# T2 construct: purchased Carna Biosciences, Inc. 08-173
# How it was run: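 Compounds were tested for blocking tyrosine phosphorylation of a biotinylated peptide substrate by recombinant human Src. Phosphorylated product was quantified by time-resolved fluorometry using europium cryptate and XL665 conjugates, and IC50 was calculated against the compound-free control.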
# human Lck enzyme = target: T3, human Lck enzyme (Homo sapiens, UniProt P06239); assay: Lck enzyme inhibitory activity (time-resolved fluorometry, biotinylated peptide phosphorylation); details: biotinylated peptide phosphorylation, read-out: LCK_IC50
# T3 construct: purchased Carna Biosciences, Inc. 08-170
# How it was run: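 Readout pairs a europium cryptate-labelled anti-phosphotyrosine antibody with XL665-streptavidin, measured by time-resolved fluorescence. IC50 derived from percent inhibition against untreated controls.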
# T1 sequence (P07947 whole entry): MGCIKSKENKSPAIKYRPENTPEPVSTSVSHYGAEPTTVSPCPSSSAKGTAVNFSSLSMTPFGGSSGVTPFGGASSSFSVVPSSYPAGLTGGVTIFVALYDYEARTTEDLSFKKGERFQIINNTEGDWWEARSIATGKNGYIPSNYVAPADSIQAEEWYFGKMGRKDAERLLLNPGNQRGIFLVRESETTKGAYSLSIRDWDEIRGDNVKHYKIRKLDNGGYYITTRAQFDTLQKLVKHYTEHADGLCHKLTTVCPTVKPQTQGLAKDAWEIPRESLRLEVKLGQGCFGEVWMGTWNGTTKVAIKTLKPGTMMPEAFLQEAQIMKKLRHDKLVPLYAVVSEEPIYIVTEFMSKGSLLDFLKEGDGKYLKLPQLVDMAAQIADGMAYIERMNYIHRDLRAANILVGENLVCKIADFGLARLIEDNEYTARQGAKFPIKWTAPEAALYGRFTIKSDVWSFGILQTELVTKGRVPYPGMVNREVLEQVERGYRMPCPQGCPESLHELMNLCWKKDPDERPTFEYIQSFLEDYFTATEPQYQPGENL
# T3 sequence (P06239 whole entry): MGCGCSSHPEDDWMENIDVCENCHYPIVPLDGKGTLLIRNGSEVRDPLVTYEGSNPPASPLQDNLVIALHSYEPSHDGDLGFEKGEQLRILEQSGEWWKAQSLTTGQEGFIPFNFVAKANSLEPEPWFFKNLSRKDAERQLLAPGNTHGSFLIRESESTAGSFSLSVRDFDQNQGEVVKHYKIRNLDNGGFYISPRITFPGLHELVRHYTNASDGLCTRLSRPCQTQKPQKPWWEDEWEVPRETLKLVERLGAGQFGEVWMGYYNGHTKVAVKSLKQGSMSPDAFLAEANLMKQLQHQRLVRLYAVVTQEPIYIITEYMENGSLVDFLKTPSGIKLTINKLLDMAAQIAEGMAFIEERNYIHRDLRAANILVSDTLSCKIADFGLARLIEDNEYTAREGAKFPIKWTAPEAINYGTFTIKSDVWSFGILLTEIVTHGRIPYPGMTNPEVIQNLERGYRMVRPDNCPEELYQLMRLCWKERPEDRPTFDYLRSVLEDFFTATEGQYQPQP
# T2 sequence (P12931 whole entry): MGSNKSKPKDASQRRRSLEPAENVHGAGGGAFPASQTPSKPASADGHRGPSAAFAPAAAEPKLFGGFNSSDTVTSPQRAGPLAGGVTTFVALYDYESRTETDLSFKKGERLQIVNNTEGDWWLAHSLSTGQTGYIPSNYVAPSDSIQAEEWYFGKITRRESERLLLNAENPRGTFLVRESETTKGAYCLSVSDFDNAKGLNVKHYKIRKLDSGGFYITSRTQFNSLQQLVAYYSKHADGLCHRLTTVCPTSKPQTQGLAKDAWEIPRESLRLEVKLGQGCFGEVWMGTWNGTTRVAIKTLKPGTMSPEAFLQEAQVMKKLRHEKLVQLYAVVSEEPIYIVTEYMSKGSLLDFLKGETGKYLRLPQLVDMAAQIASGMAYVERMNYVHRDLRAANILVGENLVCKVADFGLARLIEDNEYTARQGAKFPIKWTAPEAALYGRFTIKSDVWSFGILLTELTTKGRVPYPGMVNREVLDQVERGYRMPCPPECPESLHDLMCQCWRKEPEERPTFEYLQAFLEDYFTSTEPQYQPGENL
SMILES,IC50 (human Yes1 enzyme) [nM],IC50 (human Src enzyme) [nM],IC50 (human Lck enzyme) [nM]
"Cc1cc(Oc2ccccc2F)ccc1-n1ncc(C(=O)c2cc3cc(C4CC4)c(NS(=O)(=O)CCCF)cc3[nH]2)c1N [Example 5-1-426, N-[2-[5-amino-1-[4-(2-fluorophenoxy)-2-methylphenyl]pyrazole-4-carbonyl]-5-cyclopropyl-1H-indol-6-yl]-3-fluoropropane-1-sulfonamide]",2,95,36
"Cc1cc(Oc2c(F)cccc2F)ncc1-n1ncc(C(=O)c2cc3cc(C4CC4)c(NS(=O)(=O)CCCF)cc3[nH]2)c1N [Example 5-1-427, N-[2-[5-amino-1-[6-(2,6-difluorophenoxy)-4-methylpyridin-3-yl]pyrazole-4-carbonyl]-5-cyclopropyl-1H-indol-6-yl]-3-fluoropropane-1-sulfonamide]",3.8,170,43
"Cc1cc(Oc2ccccc2F)ncc1-n1ncc(C(=O)c2cc3cc(C4CC4)c(NS(=O)(=O)CCCF)cc3[nH]2)c1N [Example 5-1-428, N-[2-[5-amino-1-[6-(2-fluorophenoxy)-4-methylpyridin-3-yl]pyrazole-4-carbonyl]-5-cyolopropyl-1H-indol-6-yl]-3-fluoropropane-1-sulfonamide]",3.1,170,46
"Cc1cc2cc(C(=O)c3cnn(-c4cnc(Oc5c(F)cccc5F)cc4C)c3N)[nH]c2cc1N1C(=O)NC(C)(C(F)(F)F)C1=O (stereo not drawn) [Example 5-1-429, 3-[2-[5-amino-1-[6-(2,6-difluorophenoxy)-4-methylpyridin-3-yl]pyrazole-4-carbonyl]-5-methyl-1H-indol-6-yl]-5-methyl-5-(trlfluoromethyl)imidazolidine-2,4-dione]",7.5,190,25
"Cc1cc(Oc2c(F)cccc2F)ncc1-n1ncc(C(=O)c2cc3cc(F)c(N4C(=O)N[C@@H](Cc5ccccc5)C4=O)cc3[nH]2)c1N [Example 5-1-430, (5S)-3-[2-[5-amino-1-[6-(2,6-difluorophenoxy)-4-methylpyridin-3-yl]pyrazole-4-carbonyl]-5-fluoro-1H-indol-6-yl]-5-benzylimidazolidine-2,4-dione]",8.4,280,37
"Cc1cc(Oc2c(F)cccc2F)ncc1-n1ncc(C(=O)c2cc3cc(F)c(N4C(=O)N[C@@H](C(C)C)C4=O)cc3[nH]2)c1N [Example 5-1-431, (5S)-3-[2-[5-amino-1-[6-(2,6-difluorophenoxy)-4-methylpyridin-3-yl]pyrazole-4-carbonyl]-5-fluoro-1H-indol-6-yl]-5-propan-2-ylimidazolidine-2,4-dione]",4.9,190,20
"Cc1cc(Oc2c(F)cccc2F)ncc1-n1ncc(C(=O)c2cc3cc(F)c(N4C(=O)[C@@H]5CCCN5C4=O)cc3[nH]2)c1N [Example 5-1-432, (7aS)-2-[2-[5-amino-1-[6-(2,6-difluorophenoxy)-4-methylpyridin-3-yl]pyrazole-4-carbonyl]-5-fluoro-1H-indol-6-yl]-5,6,7,7a-tetrahydropyrrolo[1,2-c]imidazole-1,3-dione]",3.8,96,7.7
"Cc1cc(Oc2c(F)cccc2F)ncc1-n1ncc(C(=O)c2cc3cc(F)c(N4C(=O)[C@@H]5C[C@@H](O)CN5C4=O)cc3[nH]2)c1N [Example 5-1-433, (6R,7aS)-2-[2-[5-amino-1-[6-(2,6-difluorophenoxy)-4-methylpyridin-3-yl]pyrazole-4-carbonyl]-5-fluoro-1H-indol-6-yl]-6-hydroxy-5,6,7,7a-tetrahydropyrrolo[1,2-c]imidazole-1,3-dione]",1.2,59,4.8
"Cc1cc2cc(C(=O)c3cnn(-c4ccc(Oc5ccccc5F)cc4C)c3N)[nH]c2cc1N1C(=O)CNC1=O [Example 5-1-434, 3-[2-[5-amino-1-[4-(2-fluorophenoxy)-2-methylphenyl]pyrazole-4-carbonyl]-5-methyl-1H-indol-6-yl]imidazolidine-2,4-dione]",0.44,15,4.1
"Cc1cc2cc(C(=O)c3cnn(-c4ccc(Oc5ccccc5F)cc4C)c3N)[nH]c2cc1N1C(=O)NC(C)(C(F)(F)F)C1=O (stereo not drawn) [Example 5-1-435, 3-[2-[5-amino-1-[4-(2-fluorophenoxy)-2-methylphenyl]pyrazole-4-carbonyl]-5-methyl-1H-indol-6-yl]-5-methyl-5-(trifluoromethyl) imidazolidine-2,4-dione]",2,120,21
"Cc1cc(Oc2ccccc2F)ccc1-n1ncc(C(=O)c2cc3cc(F)c(N4C(=O)N[C@@H](Cc5ccccc5)C4=O)cc3[nH]2)c1N [Example 5-1-436, (5S)-3-[2-[5-amino-1-[4-(2-fluorophenoxy)-2-methylphenyl]pyrazole-4-carbonyl]-5-fluoro-1H-indol-6-yl]-5-benzylimidazolidine-2,4-dione]",1.7,230,35
"Cc1cc(Oc2ccccc2F)ccc1-n1ncc(C(=O)c2cc3cc(F)c(N4C(=O)NC5(CCOCC5)C4=O)cc3[nH]2)c1N [Example 5-1-437, 3-[2-[5-amino-1-[4-(2-fluorophenoxy)-2-methylphenyl]pyrazole-4-carbonyl]-5-fluoro-1H-indol-6-yl]-8-oxa-1,3-diazaspiro[4.5]decane-2,4-dione]",0.79,40,7.8
"Cc1cc(Oc2ccccc2F)ccc1-n1ncc(C(=O)c2cc3cc(F)c(N4C(=O)NC5(CCCC5)C4=O)cc3[nH]2)c1N [Example 5-1-438, 3-[2-[5-amino-1-[4-(2-fluorophenoxy)-2-methylphenyl]pyrazolo-4-carbonyl]-5-fluoro-1H-indol-6-yl]-1,3-diazaspiro[4.4]nonane-2,4-dione]",1.9,120,15
"COc1cccc(S(=O)(=O)Nc2cc3[nH]c(C(=O)c4cnn(-c5cnc(Oc6ccccc6F)cc5C)c4N)cc3cc2C)c1 [Example 5-1-439, N-[2-[5-amino-1-[6-(2-fluorophenoxy)-4-methylpyridin-3-yl]pyrazole-4-carbonyl]-5-methyl-1H-indol-6-yl]-3-methoxybenzenesulfonamide]",7.3,690,310
"Cc1cc2cc(C(=O)c3cnn(-c4cnc(Oc5ccccc5F)cc4C)c3N)[nH]c2cc1NS(=O)(=O)c1cccc(C#N)c1 [Example 5-1-440, N-[2-[5-amino-1-[6-(2-fluorophenoxy)-4-methylpyridin-3-yl]pyrazole-4-carbonyl]-5-mothyl-1H-indol-6-yl]-3-cyanobenzenesulfonamide]",3.7,440,130
"Cc1cc2cc(C(=O)c3cnn(-c4cnc(Oc5ccccc5F)cc4C)c3N)[nH]c2cc1NS(=O)(=O)c1cccnc1 [Example 5-1-441, N-[2-[5-amino-1-[6-(2-fluorophenoxy)-4-methylpyridin-3-yl]pyrazole-4-carbonyl]-5-methyl-1H-indol-6-yl]pyridine-3-sulfonamide]",1.8,280,73
"Cc1cc2cc(C(=O)c3cnn(-c4cnc(Oc5c(F)cccc5F)cc4C)c3N)[nH]c2cc1N1C(=O)CNC1=O [Example 5-1-442, 3-[2-[5-amino-1-[6-(2,6-difluorophenoxy)-4-methylpyridin-3-yl]pyrazolo-4-carbonyl]-5-methyl-1H-indol-6-yl]imidazolidine-2,4-dione]",1.2,21,4.9
"Cc1cc2cc(C(=O)c3cnn(-c4cnc(Oc5c(F)cccc5F)cc4C)c3N)[nH]c2cc1N1C(=O)N[C@@H](C)C1=O [Example 5-1-443, (5S)-3-[2-[5-amino-1-[6-(2,6-difluorophenoxy)-4-methylpyridin-3-yl]pyrazole-4-carbonyl]-5-methyl-1H-indol-6-yl]-5-methylimidazolidine-2,4-dione]",1.4,25,4.9
"Cc1cc2cc(C(=O)c3cnn(-c4ccc(Oc5ccccc5F)cc4C)c3N)[nH]c2cc1N1C(=O)N[C@@H](C)C1=O [Example 5-1-444, (5S)-3-[2-[5-amino-1-[4-(2-fluorophenoxy)-2-methylphenyl]pyrazole-4-carbonyl]-5-methyl-1H-indol-6-yl]-5-methylimidazolidine-2,4-dione]",0.65,13,3.9
"Cc1cc(Oc2ccccc2F)ccc1-n1ncc(C(=O)c2cc3cc(F)c(N4C(=O)CNC4=O)cc3[nH]2)c1N [Example 5-1-445, 3-[2-[5-amino-1-[4-(2-fluorophenoxy)-2-methylphenyl]pyrazole-4-carbonyl]-5-fluoro-1H-indol-6-yl]imidazolidine-2,4-dione]",0.54,12,3.1
"Cc1cc(Oc2ccccc2F)ccc1-n1ncc(C(=O)c2cc3cc(F)c(N4C(=O)N[C@@H](CO)C4=O)cc3[nH]2)c1N [Example 5-1-446, (5S)-3-[2-[5-amino-1-[4-(2-fluorophenoxy)-2-methylphenyl]pyrazole-4-carbonyl]-5-fluoro-1H-indol-6-yl]-5-(hydroxymethyl)imidazolidine-2,4-dione]",0.44,13,2.1
"Cc1cc(Oc2ccccc2F)ccc1-n1ncc(C(=O)c2cc3cc(F)c(N4C(=O)N[C@@H](C(C)C)C4=O)cc3[nH]2)c1N [Example 5-1-447, (5S)-3-[2-[5-amino-1-[4-(2-fluorophenoxy)-2-methylphenyl]pyrazole-4-carbonyl]-5-fluoro-1H-indol-6-yl]-5-propan-2-ylimidazolidine-2,4-dione]",2,84,12
